Test results from publication PMC8231170, “Biphenylalkoxyamine Derivatives–Histamine H3 Receptor Ligands with Butyrylcholinesterase Inhibitory Activity” (Molecules, 2021).
“Also recorded” adds a separate entry of the source. Where two headings read alike, the source gives them in different places.

How the values were obtained:
[1] = molecular target: human acetylcholinesterase; details: read-out: hAChE IC50; cited from earlier work
[2] = molecular target: human butyrylcholineserase; details: read-out: hBuChE IC50; cited from earlier work
hH3R = details: cited from earlier work
[3] = molecular target: Fatty Acid Amide Hydrolase from rat brain membranes; details: read-out: rFAAH IC50; cited from earlier work
BuChE from equine serum [4] = molecular target: T1, BuChE from equine serum (Equus caballus, UniProt P81908); details: read-out: eqBuChE IC50 Mean ± SEM; cited from earlier work
T1 construct: AChE was obtained from electric eel and BuChE from equine serum; purchased Sigma Aldrich; host or cells: equine serum (natural source)

human MAO B = molecular target: T2, human MAO B (Homo sapiens, UniProt P27338); experiment: fluorometric Monoamine Oxidase assay; type: biochemical; details: for inhibition at 1 µM: read-out: hMAO B %Inh. (converted)
T2 construct: purchased Sigma Aldrich M7441
T2 sequence (P27338 1-520): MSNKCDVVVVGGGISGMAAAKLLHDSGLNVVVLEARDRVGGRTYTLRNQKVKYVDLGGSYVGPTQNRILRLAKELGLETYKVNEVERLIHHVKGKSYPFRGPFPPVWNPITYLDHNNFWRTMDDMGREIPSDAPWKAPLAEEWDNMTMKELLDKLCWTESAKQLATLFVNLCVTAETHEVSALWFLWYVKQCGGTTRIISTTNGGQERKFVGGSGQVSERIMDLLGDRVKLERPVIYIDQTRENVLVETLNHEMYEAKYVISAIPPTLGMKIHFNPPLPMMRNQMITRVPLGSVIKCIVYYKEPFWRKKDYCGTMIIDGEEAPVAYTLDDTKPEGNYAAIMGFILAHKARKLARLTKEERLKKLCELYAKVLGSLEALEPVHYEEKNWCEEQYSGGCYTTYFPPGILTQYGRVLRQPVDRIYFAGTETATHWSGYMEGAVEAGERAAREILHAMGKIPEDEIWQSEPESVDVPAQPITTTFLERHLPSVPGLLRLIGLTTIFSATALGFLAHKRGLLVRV
Protocol: Inhibition of human MAO B (hMAO B) was evaluated using a fluorometric Monoamine Oxidase assay as we described previously.
Inhibition of hMAO B was evaluated using fluorometric Monoamine Oxidase assay as described by Łażewska et al.. Recombinant MAO B was purchased from Sigma Aldrich (M7441). […] The assay was carried out in 96-well plate. Tested compounds dissolved in DMSO (1 μM) were added to wells that contained 98 µL of enzyme dilution (1 µg/well) in phosphate buffer (50 mM, pH 7.4). […] An enzymatic reaction started following addition of para-tyramine solution (200 μM). […] Each experiment was performed in duplicate.

eqBuChE = molecular target: T3, eqBuChE (Equus caballus, UniProt P81908); experiment: kinetic studies of eqBuChE inhibition; type: biochemical; details: for type of eqBuChE inhibition: Lineweaver–Burk and Cornish–Bowden plots, substrate butyrylthiocholine
T3 construct: AChE was obtained from electric eel and BuChE from equine serum; purchased Sigma Aldrich; host or cells: equine serum (natural source)
Protocol: Moreover, the dissociation constant (Ki), describing the binding affinity between the inhibitor and the enzyme, was determined.
EqBuChE stock solution was diluted with demineralized water prior to use, giving the final concentration of 0.027 U/mL in the wells. […] For each concentration of the target compound, all six BTC solutions were utilized to perform the assays. Vmax and Km values of the Michaelis−Menten kinetics were calculated by nonlinear regression from substrate−velocity curves. Lineweaver-Burk and Cornish-Bowden plots were calculated using linear regression in GraphPad Prism 5 (GraphPad Software, San Diego, CA, USA). Each experiment was performed in triplicate.

AChE from electric eel [5] = molecular target: T4, AChE from electric eel (Electrophorus electricus, UniProt O42275); details: cited from earlier work
T4 construct: AChE was obtained from electric eel and BuChE from equine serum; purchased Sigma Aldrich; host or cells: electric eel (natural source)

[6] = previous in vitro studies; cited from earlier work
histamine receptors: H4 = details: cited from earlier work
AChE from electric eel [7] = molecular target: T4, AChE from electric eel; experiment: eeAChE inhibition, Ellman's method; type: biochemical; details: read-out: eeAChE % Inh.
Protocol: The inhibitory activities of the tested compounds against cholinesterases were evaluated by Ellman’s method. AChE was obtained from electric eel and BuChE from equine serum. Donepezil and rivastigmine were used as reference compounds. […]. Inhibitory activities of the tested compounds against cholinesterases were measured using a spectrophotometric method modified for 96-well microplates as described recently.
[…]. First, all compounds were screened at the concentration of 10 μM. The changes in absorbance were measured at 412 nm, using a microplate reader (EnSpire Multimode; PerkinElmer, Waltham, MA, USA). Then, the percent of inhibition of tested enzymes for each compound was calculated. […] Each concentration was measured in triplicate. All calculations were made using nonlinear regression GraphPad Prism 5 (GraphPad Software, San Diego, CA, USA).

BuChE from equine serum [8] = molecular target: T1, BuChE from equine serum; experiment: eqBuChE inhibition, Ellman's method; type: biochemical
Protocol: The inhibitory activities of the tested compounds against cholinesterases were evaluated by Ellman’s method. AChE was obtained from electric eel and BuChE from equine serum. […] Inhibitory activities of the tested compounds against cholinesterases were measured using a spectrophotometric method modified for 96-well microplates as described recently.
First, all compounds were screened at the concentration of 10 μM. […] Then, the percent of inhibition of tested enzymes for each compound was calculated. […] Each concentration was measured in triplicate. All calculations were made using nonlinear regression GraphPad Prism 5 (GraphPad Software, San Diego, CA, USA).

[9] = system: mouse model of scopolamine-induced memory impairments; experiment: step-through Passive Avoidance Task; type: in vivo; details: mice
Protocol: This procedure was created for studying short-term memory as well as long-term memory. The paradigm requires the rodents to behave contrary to their innate preference for dark areas and for avoiding bright ones.
The experiments were carried out on adult male Albino Swiss mice (CD-1, 18–25 g). […] Experimental groups consisted of 6–12 animals, all the animals were used only once and they were killed by cervical dislocation immediately after the assay. Behavioral measures were scored by trained observers, which were blind to experimental conditions. Treatment of laboratory animals in the present study was in full accordance with the respective Polish regulations.
Control animals (negative control) were given an appropriate amount of vehicle (1% aqueous solution of Tween 80; i.p.) 30 min before the test.
The task was performed according to the method described previously. Briefly, the test was conducted in the apparatus with two compartments (LE872, Bioseb, France). The illuminated white compartment (20 cm × 21 cm × 20 cm, 1000 lx) was separated by an automated sliding gate with the smaller dark compartment (7.3 cm × 7.5 cm × 14 cm, 10 lx) equipped with an electric grid floor. For acquisition session, mice were first placed individually in the white compartment and after 30 s the gate to the smaller compartment was opened. Immediately after entering into the dark compartment, the gate was closed and the mouse was punished by an unavoidable electric foot shock (0.8 mA for 2 s). […] Next day (24 h later), the pretested animals were placed again into the bright compartment. […] The latency time to cross through the gate between the compartments was measured.

histamine receptors: H1 = details: cited from earlier work
[10] = up to 10 µM; cited from earlier work

T3 sequence (P81908 whole entry): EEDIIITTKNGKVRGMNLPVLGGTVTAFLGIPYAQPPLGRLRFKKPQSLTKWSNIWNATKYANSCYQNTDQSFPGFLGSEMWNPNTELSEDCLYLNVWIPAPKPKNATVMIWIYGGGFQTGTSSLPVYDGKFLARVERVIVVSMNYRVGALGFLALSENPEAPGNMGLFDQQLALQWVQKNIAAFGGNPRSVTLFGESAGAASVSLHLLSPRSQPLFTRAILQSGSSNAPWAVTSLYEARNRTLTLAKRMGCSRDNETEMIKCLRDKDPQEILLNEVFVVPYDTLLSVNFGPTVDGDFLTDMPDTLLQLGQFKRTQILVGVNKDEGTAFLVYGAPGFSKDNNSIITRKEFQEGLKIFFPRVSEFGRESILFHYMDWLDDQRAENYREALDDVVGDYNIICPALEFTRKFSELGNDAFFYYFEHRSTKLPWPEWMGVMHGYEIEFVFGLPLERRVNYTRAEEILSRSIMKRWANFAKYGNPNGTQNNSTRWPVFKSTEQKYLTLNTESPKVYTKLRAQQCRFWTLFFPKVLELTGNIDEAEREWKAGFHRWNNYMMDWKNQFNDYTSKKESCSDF
T4 sequence (O42275 24-633): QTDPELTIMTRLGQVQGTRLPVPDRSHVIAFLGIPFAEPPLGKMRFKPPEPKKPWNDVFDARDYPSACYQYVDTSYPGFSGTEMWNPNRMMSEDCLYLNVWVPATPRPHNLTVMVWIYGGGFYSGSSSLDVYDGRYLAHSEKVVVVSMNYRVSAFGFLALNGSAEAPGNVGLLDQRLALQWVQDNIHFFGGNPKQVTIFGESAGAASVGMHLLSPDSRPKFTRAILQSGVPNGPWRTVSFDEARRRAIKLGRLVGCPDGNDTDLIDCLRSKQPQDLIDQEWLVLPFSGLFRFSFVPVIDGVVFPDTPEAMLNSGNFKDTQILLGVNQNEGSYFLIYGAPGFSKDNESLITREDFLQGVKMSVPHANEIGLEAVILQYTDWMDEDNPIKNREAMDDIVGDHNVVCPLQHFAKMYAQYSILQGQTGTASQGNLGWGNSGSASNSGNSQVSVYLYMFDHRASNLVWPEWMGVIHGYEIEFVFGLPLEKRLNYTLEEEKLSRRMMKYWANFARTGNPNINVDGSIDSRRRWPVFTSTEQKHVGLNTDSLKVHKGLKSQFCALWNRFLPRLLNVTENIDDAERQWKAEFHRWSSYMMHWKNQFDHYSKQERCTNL
T1 sequence (P81908 whole entry): as the sequence (P81908 whole entry) above

In the case of C#CCN(C)Cc1cc2cc(OCCCN3CCCCC3)ccc2n1C [contilisant], the IC50 [1] is listed as 530 nM, the IC50 [2] is listed as 1690 nM and the Ki (hH3R) is listed as 11 nM.
In the case of Cc1[nH]c2ccccc2c1CC(=O)NCCC1CCN(Cc2ccccc2)CC1 [Compound 1], the IC50 [1] is listed as 7270 nM and the IC50 [2] is listed as 1.09 nM.
For O=C(NCCCCCc1ccccc1)Oc1cccc(Cn2cc(COc3ccc4ccc(=O)oc4c3)nn2)c1 [Compound 2], the IC50 [1] is listed as 922 nM, the IC50 [3] is listed as 28 nM and the IC50 [2] is listed as 43 nM.
For c1ccc(-c2ccc(OCCCCCCN3CCCCCC3)cc2)cc1 [Compound 5], the IC50 (BuChE from equine serum [4]) is given as 600 ± 10 nM, the inhibition at 1 µM (human MAO B) is given as 45% and the “type of eqBuChE inhibition” value (eqBuChE) is given as “non-competitive type of eqBuChE inhibition”. The Ki (eqBuChE; replot of Lineweaver–Burk data, read-out: dissociation constant (Ki) for eqBuChE) was 652 nM, the IC50 (AChE from electric eel [5]; AChE from electric eel, read-out: eeAChE IC50 Mean ± SEM) was 2760 ± 40 nM and the “eeAChE % Inh.” value (AChE from electric eel [5]; at 10 μM) was “more than 50%”.
In the case of O=c1c2cc(Cl)ccc2oc2ccc(OCCCCCN3CCCCCC3)cc12 [Compound E342], the IC50 [1] is listed as 120 nM, the IC50 [2] is listed as 1600 nM and the Ki (hH3R) is listed as 100 nM.
For c1ccc(-c2ccc(OCCCCCN3CCCCCC3)cc2)cc1 [Compound 19, 1-(5-([1,1′-biphenyl]-4-yloxy)pentyl)azepane], the “blood–brain barrier crossing” value [6] is given as “crosses the blood–brain barrier (BBB)”, the Ki (histamine receptors: H4) is given as 21800 nM and the inhibition at 10 µM (AChE from electric eel [7]) is given as 44%. It also gave an IC50 (BuChE from equine serum [8]) of 590 ± 10 nM, an IC50 (human MAO B) of 243 ± 73 nM and an inhibition at 1 µM (human MAO B) of 54%. The “latency time, retention trial” value ([9]; 1.25 mg/kg i.p. before scopolamine 1 mg/kg) was 93.5 ± 17.4 s, the “latency time, retention trial” value ([9]; 2.5 mg/kg i.p. before scopolamine 1 mg/kg) was 119.1 ± 21.2 s and the “latency time, retention trial” value ([9]; 5.0 mg/kg i.p. before scopolamine 1 mg/kg) was 129.8 ± 17.8 s. For the same molecule, the “activity in retention trial” value ([9]; 10 mg/kg i.p. before scopolamine 1 mg/kg) was “lower activity”, the “effect on scopolamine-induced memory deficits” value ([9]; Passive Avoidance Task, listed as 19 (E153)) was “effectively alleviated memory deficits caused by scopolamine; also recorded: reversed memory impairments induced by scopolamine” and the “latency times, acquisition trial” value ([9]; i.p.) was “neither scopolamine, nor 19 nor rivastigmine significantly affected latency times”. The “type of eqBuChE inhibition” value (eqBuChE) was “mixed type of enzyme inhibition; also recorded: mixed mode of enzyme inhibition”, the Ki (histamine receptors: H1) was 1300 nM and the mutagenic activity [10] was “no mutagenic activity”.
